We go through two compounds from publication PMC8878748, “Broad-Spectrum Antiviral Activity of the Amphibian Antimicrobial Peptide Temporin L and Its Analogs” (International Journal of Molecular Sciences, 2022).

Where a SMILES comes first, the peptide text is derived from it. [ ]: non-standard residue; d: D form. The star is where a group is joined. X1 = CC(C)CCC[C@@H](C)[C@H]1CC[C@H]2[C@@H]3CC=C4C[C@@H](OC(=O)CCOCCOCCOCCOCCNC(=O)C*)CC[C@]4(C)[C@H]3CC[C@]12C; Nle = CCCC[C@H](N)C(=O)O Where only a bound is given, the exact number is not on record here.

Data set [1] in a line: MTT cytotoxicity assay on Vero cells. Format: cell-based. The settings on record: MTT, calculated after 2 h of peptide treatment.
For data set [2], the system named is Vero cells. Description: MTT cytotoxicity assay on Vero cells. Format: cell-based. The settings on record: 2 h of treatment, concentration above 50 μM.
Data set [3] has as its system MeV. The following applies: 2 h.
The subject of data set [4] is influenza virus (subtype H1N1). The following applies: influenza virus (subtype, 2 h).
For data set [5], the system named is HSV-1. More on the design: method as in PMID 29483113. The settings on record: preincubation of HSV-1 purified virions with 20 µg/mL; cited from earlier work.

A word on the CC50: it is the concentration that lowers cell viability or growth by half. As a reminder, the IC50 is the concentration needed to halve the response being measured. Lower therefore signals higher potency. As a reminder, the IC90 is the concentration needed for an effect of 90%. The low end stands for an effect from little substance, the high end for a need for much substance. With `CCCC[C@H](NC(=O)[C@@H](CC(C)C)NC(=O)[C@H](Cc1ccccc1)NC(=O)[C@H](CCCCN)NC(=O)[C@H](CO)NC(=O)[C@H](Cc1ccccc1)NC(=O)[C@H](Cc1c[nH]c2ccccc12)NC(=O)[C@@H]1CCCN1C(=O)[C@@H](NC(=O)[C@@H](N)Cc1ccccc1)C(C)C)C(=O)N[C@@H](CCCNC(=N)N)C(=O)N[C@H](C(=O)N[C@@H](CC(C)C)C(=O)NCC(=O)NCC(=O)N[C@@H](CSCC(=O)NCCOCCOCCOCCOCCC(=O)O[C@H]1CC[C@@]2(C)C(=CC[C@H]3[C@@H]4CC[C@H]([C@H](C)CCCC(C)C)[C@@]4(C)CC[C@@H]32)C1)C(N)=O)[C@@H](C)CC` [TL6.2, H-Phe-Val-Pro-Trp-Phe-Ser-Lys-Phe-DLeu-Nle-Arg-Ile-Leu-Gly-Gly-Cys-[PEG4-Cholesterol]-NH2] (H-FVPWFSKF[dL][Nle]RILGGC(X1)-NH2), the 50% cytotoxic concentration (CC50) in data set [1] was over 100 µM. Besides, the toxicity entry in data set [2] is listed as “about 40%”. Besides, in data set [3], half-maximal inhibition (IC50) was put at 40.9 µM and the IC90 is over 50 µM. In data set [4], this compound showed an IC50 of 21.1 µM and an IC90 of 49.9 µM.
For the compound temporin B [TB], the “reduction of virus titers” value in data set [5] is listed as 5 log.
